This is an account of results in article PMC7531004, “Discovery of gramicidin A analogues with altered activities by multidimensional screening of a one-bead-one-compound library” (Nature Communications, 2020).

SMILES strings stand for the structures. Where a SMILES comes first, the peptide text is derived from it. [ ]: non-standard residue; d: D form. The star is where a group is joined. NHCH2CH2OH = OCCN*; For = O=C*

Data set [1] in a line: H+/Na+ transport assay of bead-derived peptides (one-point).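 Further: relative to parent gramicidin A activity set to 1.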 The data set is classed as biochemical. Also on record: key: relative activity; mean of two control wells = 1.00. The settings on record: bead-derived peptide solution, EYPC/EYPG LUVs. The gist of the method: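 Values are normalized fluorescence, with Triton X-100 defining 100% and untreated LUVs 0%, and the two control wells averaging 1.00. Vesicles carried 1.0 mM pyranine and included egg yolk phosphatidylglycerol. Peptides were incubated with them 30 min at room temperature.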

The conditions of data set [2]: cell viability/%. The gist of the method:
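P388 cells at 1 × 10^4 cells/mL (final) were exposed to library peptides (stocks diluted 250-fold in RPMI1640/10% FBS) for 92 h at 37 °C, 5% CO2. Viable cells were counted by WST-1/1-methoxy PMS (4 h), absorbance 415 nm, and expressed as cell viability (%).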

Data set [3] has as its system Streptococcus pyogenes SSI-9. As to the kind of experiment: Antibacterial activity assay of bead-derived peptides (three concentrations). The data set is classed as cell-based. Also noted: key: +++: inhibition by the 640-fold diluted peptide solution; ++: inhibition by the 160-fold diluted solution; +: inhibition by the 40-fold diluted solution; -: no inhibition. As to conditions: S. pyogenes, bead-derived peptide solution, three concentrations. Put shortly: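 Library peptide stock applied undiluted, 4-fold and 16-fold diluted in DMSO to S. pyogenes SSI-9 (2 × 10^5 CFU) in cation-adjusted Mueller Hinton broth with 5% laked horse blood. After 18 h at 37 °C, growth judged by visible cell precipitation.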

`CC(C)C[C@@H](NC(=O)[C@H](C)NC(=O)[C@H](NC(=O)[C@H](C)NC(=O)CNC(=O)[C@@H](NC=O)C(C)C)[C@H](C)O)C(=O)N[C@H](C(=O)N[C@@H](C(=O)N[C@@H](Cc1c[nH]c2ccccc12)C(=O)N[C@@H](C(=O)N[C@@H](Cc1c[nH]c2ccccc12)C(=O)N[C@@H](C(=O)N[C@@H](Cc1c[nH]c2ccccc12)C(=O)N[C@H](CC(C)C)C(=O)N[C@@H](Cc1c[nH]c2ccccc12)C(=O)NCCO)C(C)C)[C@H](C)O)C(C)C)C(C)C` [compound 7225] (For-VGA[dT]A[dL]V[dV]W[dT]W[dV]W[dL]W-NHCH2CH2OH): in data set [1], the “H+/Na+ transport activity normalized against the value of 1 (1.00)” value (shortened to “H+/Na+ transport activity normalized”) is on record as 1.14. This compound also gave a viability in data set [2] of 100%. Moreover, the antibacterial activity result in data set [3] is reported as “-”.

As to `CC(C)C[C@@H](NC(=O)[C@H](Cc1c[nH]c2ccccc12)NC(=O)[C@H](NC(=O)[C@H](Cc1c[nH]c2ccccc12)NC(=O)[C@@H](CC(C)C)NC(=O)[C@H](Cc1c[nH]c2ccccc12)NC(=O)[C@@H](CC(C)C)NC(=O)[C@@H](NC(=O)[C@H](NC(=O)[C@H](C)NC(=O)[C@H](NC(=O)[C@H](C)NC(=O)CNC(=O)[C@@H](NC=O)C(C)C)C(C)C)[C@H](C)O)C(C)C)C(C)C)C(=O)N[C@@H](Cc1c[nH]c2ccccc12)C(=O)NCCO` [compound 10686] (For-VGA[dV]A[dT]V[dL]W[dL]W[dV]W[dL]W-NHCH2CH2OH), in data set [1], the “H+/Na+ transport activity normalized” value stood at 1.05. Moreover, the viability in data set [2] was determined as 100%. In addition, in data set [3], the antibacterial activity entry is on record as “-”.

In the case of `CC(C)C[C@@H](NC(=O)[C@H](C)NC(=O)CNC(=O)[C@@H](NC=O)C(C)C)C(=O)N[C@@H](C)C(=O)N[C@@H](C(=O)N[C@H](C(=O)N[C@@H](C(=O)N[C@@H](Cc1c[nH]c2ccccc12)C(=O)N[C@@H](C(=O)N[C@@H](Cc1c[nH]c2ccccc12)C(=O)N[C@H](CC(C)C)C(=O)N[C@@H](Cc1c[nH]c2ccccc12)C(=O)N[C@H](CC(C)C)C(=O)N[C@@H](Cc1c[nH]c2ccccc12)C(=O)NCCO)C(C)C)C(C)C)C(C)C)[C@H](C)O` [compound 8755] (For-VGA[dL]A[dT]V[dV]W[dV]W[dL]W[dL]W-NHCH2CH2OH), the “H+/Na+ transport activity normalized” value in data set [1] came to 1.10. In data set [2], this compound had a viability of 67.3%. Moreover, the antibacterial activity entry in data set [3] is “-”.

As to `CC(C)C[C@@H](NC(=O)[C@H](C)NC(=O)[C@H](NC(=O)[C@H](C)NC(=O)CNC(=O)[C@@H](NC=O)C(C)C)[C@H](C)O)C(=O)N[C@H](C(=O)N[C@H](CC(C)C)C(=O)N[C@@H](Cc1c[nH]c2ccccc12)C(=O)N[C@@H](C(=O)N[C@@H](Cc1c[nH]c2ccccc12)C(=O)N[C@@H](C(=O)N[C@@H](Cc1c[nH]c2ccccc12)C(=O)N[C@@H](C(=O)N[C@@H](Cc1c[nH]c2ccccc12)C(=O)NCCO)C(C)C)C(C)C)C(C)C)C(C)C` [compound 1842] (For-VGA[dT]A[dL]V[dL]W[dV]W[dV]W[dV]W-NHCH2CH2OH), in data set [1], the “H+/Na+ transport activity normalized” value is 1.26. The compound further registered a viability in data set [2] of 100%. For the same compound, in data set [3], the antibacterial activity entry is reported as “-”.

With `CC(C)C[C@@H](NC(=O)[C@H](Cc1c[nH]c2ccccc12)NC(=O)[C@@H](CC(C)C)NC(=O)[C@H](Cc1c[nH]c2ccccc12)NC(=O)[C@H](NC(=O)[C@H](Cc1c[nH]c2ccccc12)NC(=O)[C@H](NC(=O)[C@@H](NC(=O)[C@H](NC(=O)[C@H](C)NC(=O)[C@H](NC(=O)[C@H](C)NC(=O)CNC(=O)[C@@H](NC=O)C(C)C)[C@H](C)O)C(C)C)C(C)C)C(C)C)[C@H](C)O)C(=O)N[C@@H](Cc1c[nH]c2ccccc12)C(=O)NCCO` [compound 3226] (For-VGA[dT]A[dV]V[dV]W[dT]W[dL]W[dL]W-NHCH2CH2OH), the “H+/Na+ transport activity normalized” value in data set [1] turned out to be 1.06. Moreover, the viability in data set [2] came to 87.6%. Besides, the antibacterial activity entry in data set [3] is given as “-”.

Turning to `CC(C)C[C@@H](NC(=O)[C@H](C)NC(=O)CNC(=O)[C@@H](NC=O)C(C)C)C(=O)N[C@@H](C)C(=O)N[C@H](CC(C)C)C(=O)N[C@H](C(=O)N[C@H](CC(C)C)C(=O)N[C@@H](Cc1c[nH]c2ccccc12)C(=O)N[C@H](CC(C)C)C(=O)N[C@@H](Cc1c[nH]c2ccccc12)C(=O)N[C@@H](C(=O)N[C@@H](Cc1c[nH]c2ccccc12)C(=O)N[C@H](CC(C)C)C(=O)N[C@@H](Cc1c[nH]c2ccccc12)C(=O)NCCO)[C@H](C)O)C(C)C` [compound 1888] (For-VGA[dL]A[dL]V[dL]W[dL]W[dT]W[dL]W-NHCH2CH2OH), the “H+/Na+ transport activity normalized” value in data set [1] is recorded as 1.16. Also, the viability in data set [2] was 100%. Also, in data set [3], the antibacterial activity entry is given as “-”.

As to `CC(C)[C@H](NC=O)C(=O)NCC(=O)N[C@@H](C)C(=O)N[C@@H](C(=O)N[C@@H](C)C(=O)N[C@@H](C(=O)N[C@H](C(=O)N[C@@H](C(=O)N[C@@H](Cc1c[nH]c2ccccc12)C(=O)N[C@@H](C(=O)N[C@@H](Cc1c[nH]c2ccccc12)C(=O)N[C@@H](C(=O)N[C@@H](Cc1c[nH]c2ccccc12)C(=O)N[C@@H](C(=O)N[C@@H](Cc1c[nH]c2ccccc12)C(=O)NCCO)C(C)C)C(C)C)[C@H](C)O)C(C)C)C(C)C)C(C)C)C(C)C` [compound 532] (For-VGA[dV]A[dV]V[dV]W[dT]W[dV]W[dV]W-NHCH2CH2OH), the “H+/Na+ transport activity normalized” value in data set [1] is 1.03. The same compound returned a viability in data set [2] of 100%. Also, the antibacterial activity result in data set [3] is on record as “-”.

As for `CC(C)C[C@@H](NC(=O)[C@H](C)NC(=O)CNC(=O)[C@@H](NC=O)C(C)C)C(=O)N[C@@H](C)C(=O)N[C@H](CC(C)C)C(=O)N[C@H](C(=O)N[C@H](CC(C)C)C(=O)N[C@@H](Cc1c[nH]c2ccccc12)C(=O)N[C@@H](C(=O)N[C@@H](Cc1c[nH]c2ccccc12)C(=O)N[C@@H](C(=O)N[C@@H](Cc1c[nH]c2ccccc12)C(=O)N[C@@H](C(=O)N[C@@H](Cc1c[nH]c2ccccc12)C(=O)NCCO)[C@H](C)O)[C@H](C)O)C(C)C)C(C)C` [compound 7253] (For-VGA[dL]A[dL]V[dL]W[dV]W[dT]W[dT]W-NHCH2CH2OH), the “H+/Na+ transport activity normalized” value in data set [1] is 1.03. This compound also registered a viability in data set [2] of 45.4%. Also, in data set [3], the antibacterial activity entry is “-”.

With `CC(C)C[C@@H](NC(=O)[C@H](C)NC(=O)CNC(=O)[C@@H](NC=O)C(C)C)C(=O)N[C@@H](C)C(=O)N[C@H](CC(C)C)C(=O)N[C@H](C(=O)N[C@H](CC(C)C)C(=O)N[C@@H](Cc1c[nH]c2ccccc12)C(=O)N[C@@H](C(=O)N[C@@H](Cc1c[nH]c2ccccc12)C(=O)N[C@@H](C(=O)N[C@@H](Cc1c[nH]c2ccccc12)C(=O)N[C@H](CC(C)C)C(=O)N[C@@H](Cc1c[nH]c2ccccc12)C(=O)NCCO)[C@H](C)O)C(C)C)C(C)C` [compound 5736] (For-VGA[dL]A[dL]V[dL]W[dV]W[dT]W[dL]W-NHCH2CH2OH), the “H+/Na+ transport activity normalized” value in data set [1] is given as 1.11. In data set [2], the viability was found to be 95.5%. Besides, in data set [3], the antibacterial activity entry is reported as “-”.

Turning to `CC(C)C[C@@H](NC(=O)[C@H](C)NC(=O)CNC(=O)[C@@H](NC=O)C(C)C)C(=O)N[C@@H](C)C(=O)N[C@H](CC(C)C)C(=O)N[C@H](C(=O)N[C@@H](C(=O)N[C@@H](Cc1c[nH]c2ccccc12)C(=O)N[C@@H](C(=O)N[C@@H](Cc1c[nH]c2ccccc12)C(=O)N[C@@H](C(=O)N[C@@H](Cc1c[nH]c2ccccc12)C(=O)N[C@@H](C(=O)N[C@@H](Cc1c[nH]c2ccccc12)C(=O)NCCO)[C@H](C)O)C(C)C)C(C)C)C(C)C)C(C)C` [compound 2793] (For-VGA[dL]A[dL]V[dV]W[dV]W[dV]W[dT]W-NHCH2CH2OH), the “H+/Na+ transport activity normalized” value in data set [1] came to 1.08. This compound also displayed a viability in data set [2] of 84.6%. For the same compound, the antibacterial activity entry in data set [3] is listed as “-”.

With `CC(C)C[C@@H](NC(=O)[C@H](C)NC(=O)[C@H](NC(=O)[C@H](C)NC(=O)CNC(=O)[C@@H](NC=O)C(C)C)[C@H](C)O)C(=O)N[C@H](C(=O)N[C@H](CC(C)C)C(=O)N[C@@H](Cc1c[nH]c2ccccc12)C(=O)N[C@@H](C(=O)N[C@@H](Cc1c[nH]c2ccccc12)C(=O)N[C@H](CC(C)C)C(=O)N[C@@H](Cc1c[nH]c2ccccc12)C(=O)N[C@@H](C(=O)N[C@@H](Cc1c[nH]c2ccccc12)C(=O)NCCO)[C@H](C)O)C(C)C)C(C)C` [compound 3130] (For-VGA[dT]A[dL]V[dL]W[dV]W[dL]W[dT]W-NHCH2CH2OH), the “H+/Na+ transport activity normalized” value in data set [1] came out at 1.05. This compound also displayed a viability in data set [2] of 100%. The antibacterial activity result in data set [3] is listed as “-”.

For the compound `CC(C)C[C@@H](NC(=O)[C@H](C)NC(=O)CNC(=O)[C@@H](NC=O)C(C)C)C(=O)N[C@@H](C)C(=O)N[C@@H](C(=O)N[C@H](C(=O)N[C@H](CC(C)C)C(=O)N[C@@H](Cc1c[nH]c2ccccc12)C(=O)N[C@@H](C(=O)N[C@@H](Cc1c[nH]c2ccccc12)C(=O)N[C@@H](C(=O)N[C@@H](Cc1c[nH]c2ccccc12)C(=O)N[C@@H](C(=O)N[C@@H](Cc1c[nH]c2ccccc12)C(=O)NCCO)[C@H](C)O)C(C)C)C(C)C)C(C)C)C(C)C` [compound 11625] (For-VGA[dL]A[dV]V[dL]W[dV]W[dV]W[dT]W-NHCH2CH2OH), the “H+/Na+ transport activity normalized” value in data set [1] is given as 1.08. Besides, the viability in data set [2] turned out to be 100%. In data set [3], the antibacterial activity result is on record as “-”.
